Article PMC5046085, “Systemic Inhibition of CREB is Well-tolerated in vivo” (Scientific Reports, 2016)

How the values were obtained:
[1] = In vivo pharmacokinetics, plasma concentration by LC-MS/MS; conditions: female, mouse, single dose 10 mg/kg IP, C57BL/6 mice, read-out: plasma concentration 24 h after drug administration
Protocol: Then the blood was collected at different time points and the plasma drug concentration was measured using tandem mass spectroscopy coupled with liquid chromatography (LC/MS-MS) methods.
Blood was collected at 0.083, 0.25, 0.5, 1, 2, 4, 8, 24 h post drug administration. Blood was collected from each mouse from the submandibular vein (3 time points/mouse). The blood was collected into the EDTA-K2 tubes, and centrifuged at 4,000× rpm for 10 min at 4 °C. The plasma was removed and stored at −80 °C until further analysis. The quantitative LC-MS/MS analyses were conducted using an Agilent 1200 HPLC system coupled to an API 4000 mass spectrometer equipped with an API electrospray ionization (ESI) source. The mobile phases used are a linear gradient of mobile phase A (10 mM ammonium acetate in H2O) and mobile phase B (10 mM ammonium acetate in 90% MeOH). The column used was Xtimate C18 2.1 × 30 mm (3 μm) with a flow rate of 0.6 mL/min. The mass spectrometer was operated in ESI positive ion mode and detection of the drugs was performed by multiple reaction monitoring (MRM).

Gal4-MLL(2840–2858) = system: T1, Gal4-MLL(2840–2858); assay: Gal4-MLL transcription reporter assay in HEK293T cells; assay type: cell-based, human; conditions: pG5B reporter, increasing concentrations, 5–7 h
T1 construct: human MLL (2840–2858) ([…]); expressed in transfected cells; host or cells: HEK293T
Protocol: (§1) In these transcription reporter assays, HEK293T cells were transfected with Gal4-fusions along with a Gal4-responsive luciferase reporter or SRF-responsive luciferase (SRE-Luc) reporter. For Gal4-TEAD4, coactivator YAP1 was also included for transfection to enhance its transcription activity. Then the cells were treated with increasing concentrations of 666-15. […] (Fig. 2D).
(§2) Figure 2 Selectivity of 666-15 against different transcription factors. […] HEK 293T cells were transfected with Gal4-MLL/pG5B (A) Gal4-c-Myb/pG5B (B) Gal4-TEAD4/YAP1/pG5B (C) or SRE-Luc (D). Then the transfected cells were treated with increasing concentrations of 666-15 for 5–7 h. The luciferase activity was then measured, normalized to the protein content and expressed as relative luciferase unit (RLuc)/μg protein.
(§3) 666-15 was described before. […]
(§4) HEK293T cells (ATCC) were routinely cultured in Dulbecco’s modified Eagle medium (DMEM, Life Technologies) supplemented with 10% fetal bovine serum (Hyclone) and non-essential amino acids (Life Technologies). […] The luciferase activity was measured by a tube luminometer (Berthold) using luciferase assay reagent (Promega). The protein concentration of the cell lysates in each well was determined using a Protein Assay Dye Reagent (Biorad). The luciferase activity in each well was normalized to the protein content and expressed as RLuc (relative luciferase unit)/μg protein.

Gal4-c-Myb(241–325) = target: T2, Gal4-c-Myb(241–325) (Homo sapiens, UniProt P10242); assay: Gal4-c-Myb transcription reporter assay in HEK293T cells; assay type: cell-based; conditions: pG5B reporter, increasing concentrations, 5–7 h
T2 construct: Gal4-c-Myb (241–325) was a generous gift of Dr. Anders Näär; expressed in transfected cells; host or cells: HEK293T
Protocol: as §1, §2, §3, §4

c-Myb = system: c-Myb; parameters: method as in PMID 15585582, PMID 25740244; conditions: cited from earlier work

T2 sequence (P10242 with tags, fused parts or gaps limits assumed): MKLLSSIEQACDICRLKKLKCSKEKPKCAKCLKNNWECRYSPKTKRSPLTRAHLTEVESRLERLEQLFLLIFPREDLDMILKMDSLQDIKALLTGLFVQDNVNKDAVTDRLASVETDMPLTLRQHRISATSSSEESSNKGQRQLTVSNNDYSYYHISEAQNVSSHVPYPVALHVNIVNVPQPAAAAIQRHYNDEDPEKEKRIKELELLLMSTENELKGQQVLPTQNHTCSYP
T1 sequence (P04386 with tags, fused parts or gaps): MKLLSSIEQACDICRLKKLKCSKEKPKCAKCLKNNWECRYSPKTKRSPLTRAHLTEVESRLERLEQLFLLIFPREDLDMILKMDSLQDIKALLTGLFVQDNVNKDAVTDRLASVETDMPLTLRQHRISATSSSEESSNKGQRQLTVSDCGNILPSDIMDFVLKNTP

Row | SMILES | concentration at 24 h [1] | inhibition of Gal4-MLL-mediated transcription (Gal4-MLL(2840–2858)) | inhibition of Gal4-c-Myb-mediated transcription (Gal4-c-Myb(241–325)) | effect on c-Myb's activity (c-Myb)
1 | NCCCOc1cc2ccccc2cc1C(=O)NCCOc1cc2ccccc2cc1C(=O)Nc1ccc(Cl)cc1O [666-15] | 50 to 100 nM | no inhibition | no inhibition | –
2 | O=C(Nc1ccc(Cl)cc1)c1cc2ccccc2cc1OP(=O)(O)O [naphthol AS-E phosphate] | – | – | – | inhibits c-Myb’s activity
